Assay results reported in patent US20250042875A1, “PESTICIDALLY ACTIVE PYRIDAZINONE COMPOUNDS” (SYNGENTA CROP PROTECTION AG, priority 2021, published 2025).

Legend:
Assay type in all cases: in vivo
[1] = system: Chilo suppressalis; experiment: Activity against Chilo suppressalis (striped rice stemborer), artificial diet, L2 larvae; details: 144 h, application rate 200 ppm, 6 days after infestation, read-out: control in at least one of the three categories (mortality, anti-feedant effect, or growth inhibition)
Method in brief: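 Artificial diet was treated with aqueous test solutions made from 10′000 ppm DMSO stocks, dried, then infested with 6-8 L2 larvae per well. Mortality, anti-feeding effect and growth inhibition were scored versus untreated samples 6 days after infestation; control means any category exceeds untreated.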

[2] = system: Diabrotica balteata; experiment: Activity against Diabrotica balteata (corn root worm), maize sprouts, L2 larvae; details: 96 h, application rate 200 ppm, 4 days after infestation, read-out: control in at least one of the two categories (mortality or growth inhibition)
Procedure: Example B2: Activity Against Diabrotica Balteata (Corn Root Worm)
Maize sprouts placed onto an agar layer in 24-well microtiter plates were treated with aqueous test solutions prepared from 10′000 ppm DMSO stock solutions by spraying. After drying, the plates were infested with L2 larvae (6 to 10 per well). The samples were assessed for mortality and growth inhibition in comparison to untreated samples 4 days after infestation.

[3] = system: Myzus persicae; experiment: Activity against Myzus persicae (green peach aphid), feeding/contact activity; details: 144 h, application rate 200 ppm, 6 days after infestation
Procedure: Example B5: Activity Against Myzus persicae (Green Peach Aphid). Feeding/Contact Activity
Sunflower leaf discs were placed onto agar in a 24-well microtiter plate and sprayed with aqueous test solutions prepared from 10′000 ppm DMSO stock solutions. After drying, the leaf discs were infested with an aphid population of mixed ages. The samples were assessed for mortality 6 days after infestation.

[4] = system: Myzus persicae; experiment: Activity against Myzus persicae (green peach aphid), intrinsic activity; details: 120 h, test rate 12 ppm, 5 days after infestation
Method in brief: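 Compounds diluted from 10′000 ppm DMSO stocks were mixed with sucrose solution under a stretched Parafilm membrane. Aphid-infested pea seedlings were set on the membrane and the plate was inverted so the aphids fed through it. Mortality was scored 5 days after infestation.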

[5] = system: Plutella xylostella; experiment: Activity against Plutella xylostella (diamond back moth), artificial diet, eggs; details: 192 h, application rate 200 ppm, 8 days after infestation, read-out: control in at least one of the two categories (mortality or growth inhibition)
Method in brief: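 Artificial diet was treated with aqueous dilutions of 10′000 ppm DMSO stocks, dried, then infested with Plutella eggs. Mortality and growth inhibition versus untreated samples were scored 8 days after infestation.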

[6] = system: Spodoptera littoralis; experiment: Activity against Spodoptera littoralis (Egyptian cotton leaf worm), cotton leaf discs, L1 larvae; details: foliar, 72 h, application rate 200 ppm, 3 days after infestation, read-out: control in at least one of the three categories (mortality, anti-feedant effect, or growth inhibition)
Method in brief: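 Cotton leaf discs on agar sprayed with aqueous test solutions made from 10′000 ppm DMSO stocks, then infested with five L1 larvae once dry. Mortality, anti-feeding and growth inhibition scored versus untreated samples 3 days after infestation; control counted when any category exceeds untreated.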

[7] = system: Myzus persicae; experiment: Activity against Myzus persicae (green peach aphid), systemic activity; details: 144 h, test rate 24 ppm, 6 days after placing seedlings into test solutions
Procedure: Example B9: Activity Against Myzus persicae (Green Peach Aphid). Systemic Activity
Roots of pea seedlings infested with an aphid population of mixed ages were placed directly into aqueous test solutions prepared from 10′000 DMSO stock solutions. The samples were assessed for mortality 6 days after placing seedlings into test solutions.

[8] = system: Euschistus heros; experiment: Activity against Euschistus heros (neotropical brown stink bug), soybean leaves, N2 nymphs; details: 120 h, application rate 200 ppm, 5 days after infestation, read-out: effect in at least one of the two categories (mortality or growth inhibition)
Procedure: Example B3: Activity Against Euschistus heros (Neotropical Brown Stink Bug)
Soybean leaves on agar in 24-well microtiter plates were sprayed with aqueous test solutions prepared from 10′000 ppm DMSO stock solutions. After drying the leaves were infested with N2 nymphs. The samples were assessed for mortality and growth inhibition in comparison to untreated samples 5 days after infestation.

[9] = system: Frankliniella occidentalis; experiment: Activity against Frankliniella occidentalis (western flower thrips), feeding/contact activity; details: 168 h, application rate 200 ppm, 7 days after infestation
Procedure: Example B4: Activity Against Frankliniella occidentalis (Western Flower Thrips). Feeding/Contact Activity
Sunflower leaf discs were placed on agar in 24-well microtiter plates and sprayed with aqueous test solutions prepared from […] stock solutions. After drying the leaf discs were infested with a Frankliniella population of mixed ages. The samples were assessed for mortality 7 days after infestation.

[10] = system: Tetranychus urticae; experiment: Activity against Tetranychus urticae (two-spotted spider mite), feeding/contact activity; details: 192 h
Procedure: Example B10: Activity Against Tetranychus urticae (Two-Spotted Spider Mite). Feeding/Contact Activity
Bean leaf discs on agar in 24-well microtiter plates were sprayed with aqueous test solutions prepared from 10′000 ppm DMSO stock solutions. After drying the leaf discs were infested with a mite population of mixed ages. The samples were assessed for mortality on mixed population (mobile stages) 8 days after infestation.

CC(c1nccnc1-c1ccc(=O)n(C)n1)N(C)C(=O)c1cc(C(F)(F)F)cc(C(F)(F)F)c1 (centres unmarked) [P6, N-methyl-N-[1-[3-(1-methyl-6-oxo-pyridazin-3-yl)pyrazin-2-yl]ethyl]-3,5-bis(trifluoromethyl)benzamide]
≥ 80%: percent control (mortality, anti-feedant effect or growth inhibition) at 200 ppm [1] | percent control (mortality or growth inhibition) at 200 ppm [2] | mortality at 200 ppm [3] | mortality at 12 ppm [4] | percent control (mortality or growth inhibition) at 200 ppm [5] | percent control (mortality, anti-feedant effect or growth inhibition) at 200 ppm [6] | mortality at 24 ppm [7]

C[C@@H](c1ncnn1-c1ccc(=O)n(C)n1)N(C)C(=O)c1cc(Cl)cc(S(=O)(=O)C(F)(F)F)c1 [P18, 3-chloro-N-methyl-N-[(1S)-1-[2-(1-methyl-6-oxo-pyridazin-3-yl)-1,2,4-triazol-3-yl]ethyl]-5-(trifluoromethylsulfonyl) benzamide]
≥ 80%: percent control (mortality, anti-feedant effect or growth inhibition) at 200 ppm [1] | percent control (mortality or growth inhibition) at 200 ppm [2] | percent effect (mortality or growth inhibition) at 200 ppm [8] | mortality at 200 ppm [3] | mortality at 12 ppm [4] | percent control (mortality or growth inhibition) at 200 ppm [5] | percent control (mortality, anti-feedant effect or growth inhibition) at 200 ppm [6] | mortality at 24 ppm [7]

C[C@H](NC(=O)c1cc(C(F)(F)F)cc(C(F)(F)F)c1)c1ncnn1C1=NN(C)C(=O)CC1 [P2, N-[(1S)-1-[2-(1-methyl-6-oxo-4,5-dihydropyridazin-3-yl)-1,2,4-triazol-3-yl]ethyl]-3,5-bis(trifluoromethyl)benzamide]
≥ 80%: percent control (mortality, anti-feedant effect or growth inhibition) at 200 ppm [1] | percent control (mortality or growth inhibition) at 200 ppm [2] | percent effect (mortality or growth inhibition) at 200 ppm [8] | mortality at 200 ppm [9] | mortality at 200 ppm [3] | percent control (mortality or growth inhibition) at 200 ppm [5] | percent control (mortality, anti-feedant effect or growth inhibition) at 200 ppm [6]

C[C@@H](c1ncnn1-c1ccc(=O)n(C)n1)N(C)C(=O)c1cc(C(F)(F)F)cc(C(F)(F)F)c1 [P5, N-methyl-N-[(1S)-1-[2-(1-methyl-6-oxo-pyridazin-3-yl)-1,2,4-triazol-3-yl]ethyl]-3,5-bis(trifluoromethyl)benzamide]
≥ 80%: percent control (mortality, anti-feedant effect or growth inhibition) at 200 ppm [1] | percent control (mortality or growth inhibition) at 200 ppm [2] | percent effect (mortality or growth inhibition) at 200 ppm [8] | mortality at 200 ppm [3] | mortality at 12 ppm [4] | percent control (mortality or growth inhibition) at 200 ppm [5] | percent control (mortality, anti-feedant effect or growth inhibition) at 200 ppm [6] | mortality at 24 ppm [7]

C[C@H](NC(=O)c1cc(Cl)cc(C(F)(F)F)c1)c1ncnn1C1=NN(C)C(=O)CC1 [P19, 3-chloro-N-[(1S)-1-[2-(1-methyl-6-oxo-4,5-dihydropyridazin-3-yl)-1,2,4-triazol-3-yl]ethyl]-5-(trifluoromethyl)benzamide]
≥ 80%: percent control (mortality, anti-feedant effect or growth inhibition) at 200 ppm [1] | percent control (mortality or growth inhibition) at 200 ppm [2] | percent effect (mortality or growth inhibition) at 200 ppm [8] | mortality at 200 ppm [9] | mortality at 12 ppm [4] | percent control (mortality or growth inhibition) at 200 ppm [5] | percent control (mortality, anti-feedant effect or growth inhibition) at 200 ppm [6] | mortality at 200 ppm [10]
